Results: article PMC9468151, “Identification of a binding site on soluble RANKL that can be targeted to inhibit soluble RANK-RANKL interactions and treat osteoporosis” (Nature Communications, 2022)
pEC50, pIC50: −log10 of the molar value. Where “and” joins values, the source holds several entries; their conditions need not be identical. Equal entries are not always repeated.

Columns and labels:
[1] = test system: mRANKL induced osteoclastogenesis; assay: mRANKL induced osteoclastogenesis assay; assay type: cell-based, mouse; conditions: for OC inhibitory ratio, mRANKL induced (fig. 3d IC50 curve data): replicates
[2] = test system: NF-κB, MAPK and PI3K-AKT signaling; assay: Western blotting of RANKL-RANK signaling in RAW264.7 cells; assay type: cell-based, mouse; conditions: RAW264.7, 5 μM
Procedure: The mRNA expression level of S3-15 was measured by RT–qPCR as primary described. Total cellular RNA sample was prepared using RNAiso Plus, followed by reverse transcription with PrimeScript™ MixRT Master Mix reverse transcriptase kit. Then quantitative real-time PCR assays were performed with TB Green™ premix EX Taq™ II kit on an Applied Biosystems. […] signaling inhibiting effect was determined by western blotting. RAW264.7 cells were treated with 5 μM S3-15 with or without sRANKL (100 ng/mL) for 5, 10, 30 and 60 min after starved for 1 h. Then the cells were washed with cold PBS and lysed by RIPA Lysis Buffer. Cell lysates were then processed for Western Blotting analyses. Primary antibody binding was detected using rat secondary antibodies (1:5000) coupled with enhanced chemiluminescence (ECL) reagents (Thermo Scientific) and visualized on Tanon 5200. Primers used for qPCR and antibodies used for western blotting were seen supplementary materials for details.

mature osteoclasts = assay: Osteoclasts apoptotic activity assay; assay type: cell-based, mouse
Procedure: Mature osteoclasts were generated according to “Primary cultures of BMMs and osteoclastogenesis assay”. Mature osteoclasts were treated with or without compounds for 24 h[53]. At the end of incubation, cells were fixed with 4% paraformaldehyde and applied TRAP-staining. Apoptosis and cell death was measured by in situ fluorescence staining with AnnexinV-FITC (Beyotime Biotechnology) and prodidium iodide or DAPI staining flowing by their instructions. TRAP-positive cells, Annexin V, PI, and DAPI were visualized by Leica fluorescence microscopic.

[3] = test system: WT sRANKL or Q238A sRANKL induced osteoclast formation; assay: Rescue experiment: osteoclast formation induced by WT or Q238A sRANKL; assay type: cell-based, mouse
Procedure: (§1) For the osteoclast formation induced by WT and Q238A sRANKL experiments, BMMs were seeded in 96-well plate in density of 6 × 10^3 cell/ well with α-MEM completed medium containing 10 ng/mL M-CSF for 24 h. Then the cells were treated with 0 μM, 0.3 μM, 3 μM and 10 μM and stimulated with 100 ng/mLWT sRANKL or Q238A sRANKL respectively. For the osteoclast formation induced by WT, W194A, and H226A sRANKL experiments, cells were stimulated with 100 ng/mL WT sRANKL combined W194A, H226A sRANKL in different concentrations (50 ng/mL, 200 ng/mL, and 400 ng/mL) with or without 10 μM S3-15. After 5 days, osteoclasts were formed, and applied TRAP-staining as described above. TRAP-positive multinucleated cells with > 3 nuclei were scored as osteoclasts.

[4] = test system: WT sRANKL induced osteoclast formation with H226A/W194A sRANKL; assay: Rescue experiment: WT sRANKL combined with W194A or H226A sRANKL; assay type: cell-based, mouse; parameters: osteoclast formation (fig. S4b): unit not given here; conditions: S3-15 10 μM; for OC numbers: 100 ng/mL WT sRANKL
Procedure: as §1

OVX rats [5] = assay: Serum biochemical markers determination; assay type: in vivo, rat; parameters: TG / ALT / AST / ALP / GLU / TC / Ca / TBA / TBIL / BUN / CREA: unit not given here
From the text: After treating with S3-15 for 12 weeks, rat serum was harvested and analyzed routine blood biochemical markers, including calcium (Ca), phosphorus (P), total cholesterol (TC), triglyceride (TG), glucose (Glu), aspartate aminotransferase (AST), alanine aminotransferase (ALT), alkaline phosphatase (ALP), total bile acid (TBIL), total bilirubin (TBA), creatinine (CREA), urea nitrogen (BUN). Ca, P, AST, ALT, ALP, CREA, and BUN were purchased from Wako Pure Chemical, Japan; Glu,TC, TG, TBIL, and TBA were purchased from Kehua Bio-engineering Co.LTD, China. Routine blood biochemical markers were examined with a Hitachi chemistry automated analyzer (Hitachi 7020, Japan) according to manufacturer’s instruction.

OVX rats [6] = assay: Rat body weight and organ coefficients determination; assay type: in vivo; conditions: for body weight (fig. S7d): in g (unit assumed)
Procedure: We dissected all rats after 12 weeks of treatment, then took the main organs like heart, liver, spleen, lung, kidney, and thymus. All the organs were removed the attached adipose and weighted with an electronic balance (Sartorius, Germany). Mice spleen and cervical lymph node were also taken and weighted. Organ index (mg/g) was calculated as the following formula: Organ coefficients=Organweight(mg)/Ratormousetotalweight(g)

[7] = serum, OVX rats, individual animals

CC(=O)/C(=N\Nc1ccccc1C(=O)O)C(=O)Nc1ccccn1 [S3-15]
OC inhibitory ratio, mRANKL induced (fig. 3d IC50 curve data) ([1]; 0.0023464 μM): -1.8319 and -1.185 and 3.987
OC inhibitory ratio, mRANKL induced (fig. 3d IC50 curve data) ([1]; 0.00774313 μM): -0.2155 and 3.341 and 0.431
OC inhibitory ratio, mRANKL induced (fig. 3d IC50 curve data) ([1]; 0.0255523 μM): 1.724 and 9.483 and -1.8319
OC inhibitory ratio, mRANKL induced (fig. 3d IC50 curve data) ([1]; 0.0843226 μM): 10.4526 and 18.2112 and 10.1293
OC inhibitory ratio, mRANKL induced (fig. 3d IC50 curve data) ([1]; 0.278265 μM): 19.8276 and 9.806 and 12.7155
OC inhibitory ratio, mRANKL induced (fig. 3d IC50 curve data) ([1]; 0.918274 μM): 19.8276 and 9.806 and 12.7155
OC inhibitory ratio, mRANKL induced (fig. 3d IC50 curve data) ([1]; 3.0303 μM): 46.6595 (2×) and 50.5388
OC inhibitory ratio, mRANKL induced (fig. 3d IC50 curve data) ([1]; 10 μM): 62.8233 (2×) and 61.5302
OC inhibitory ratio, mRANKL induced (fig. 3d IC50 curve data) ([1]; 33 μM): 90.3017 and 88.3621 and 89.6552
pIC50 ([1]; Mus musculus, +mRANKL): 5.38
MAPK signaling (phosphorylation of ERK, JNK, p38) [2]: abrogated MAPK signaling
PI3K-AKT signaling (phosphorylation of PI3K, AKT) [2]: reduced PI3K-AKT signaling
RANKL-induced NF-κB signaling (phosphorylation of IKKα, IκBα, p65) [2]: suppresses RANKL-induced NF-κB signaling
pEC50 (mature osteoclasts; Mus musculus, Osteoclast, 24 h treatment, read-out: EC50, apoptosis of mature osteoclasts): 6.26
dead osteoclast quantification (fig. 6f) (mature osteoclasts; mature osteoclasts, vehicle 41, 55, 67): 227 and 290 and 265
osteoclastogenesis when incubated with Q238A sRANKL ([3]; Q238A sRANKL): cannot block osteoclastogenesis
Number of OCs ([3]; Q238A sRANKL 100 ng/mL, S3-15 0.3 μM): 268 and 278 and 265
Number of OCs ([3]; Q238A sRANKL 100 ng/mL, S3-15 3 μM): 250 and 279 and 269
Number of OCs ([3]; Q238A sRANKL 100 ng/mL, S3-15 10 μM): 265 and 279 and 270
Number of OCs ([3]; WT RANKL 100 ng/mL, S3-15 0.3 μM): 142 and 135 and 149
Number of OCs ([3]; WT RANKL 100 ng/mL, S3-15 3 μM): 35 and 57 and 40
OC numbers ([4]; H226A RANKL 0 ng/mL): 36 and 29
OC numbers ([4]; H226A RANKL 50 ng/mL): 173 and 156 and 170
OC numbers ([4]; H226A RANKL 200 ng/mL): 113 and 121 and 125
osteoclast formation (fig. S4b) ([4]; W194A RANKL 0 ng/mL): 34 and 49 and 27
osteoclast formation (fig. S4b) ([4]; W194A RANKL 50 ng/mL): 147 and 144 and 140
osteoclast formation (fig. S4b) ([4]; W194A RANKL 200 ng/mL): 145 and 199 and 158
osteoclast formation (fig. S4b) ([4]; W194A RANKL 400 ng/mL): 119 and 118 and 97
organ toxicity / routine blood examination (OVX rats [5]; rats, 12 weeks treatment): no organ toxicity in vivo
ALP (OVX rats [5]; [7]): 35 and 77 and 34 and 39 and 60 and 23 and 42 and 48 and 49
ALT (OVX rats [5]; [7]): 29 and 34 and 37 and 33 and 38 and 25 and 28 and 32 and 39
AST (OVX rats [5]; [7]): 82 and 90 and 88 and 109 and 96 and 114 and 85 and 87 and 95
BUN (OVX rats [5]; [7]): 5.99 and 5.28 and 6.41 and 6.31 and 5.6 and 5.72 and 5.71 and 5.18 and 6
CREA (OVX rats [5]; [7]): 58.7 and 57.9 and 57 and 66.1 and 49.8 and 56.6 and 56.8 and 65.7 and 60.7
Ca (OVX rats [5]; [7]): 2.46 and 2.39 and 2.41 and 2.43 and 2.15 and 2.33 and 2.34
GLU (OVX rats [5]; [7]): 10.2096 and 9.028 and 12.7431 and 8.981 and 13.9764 and 7.763 and 10.2611 and 9.122 and 11.2914
TBA (OVX rats [5]; [7]): 26.48 and 20.71 and 36.69 and 15.65 and 15.57 and 21.76 and 21.4 and 18.86 and 18.33
TBIL (OVX rats [5]; [7]): 1.84 and 1.07 and 1.06 and 1.28 and 0.95 and 0.98 and 0.77 and 0.97 and 0.78
TC (OVX rats [5]; [7]): 2.99 and 2.55 and 2.35 and 2.13 and 2.5 and 2.24 and 2.36 and 2.45
TG (OVX rats [5]; [7]): 1.05 and 0.75 and 0.49 and 0.31 and 0.47 and 0.65 and 0.46 and 0.64
organ coefficient, Heart (OVX rats [6]; individual animals): 2.652 and 2.903 and 2.602 and 2.757 and 2.485 and 2.813 and 2.658 and 2.708 and 2.583
organ coefficient, Kidney (OVX rats [6]; individual animals): 4.969 and 4.261 and 5.124 and 5.036 and 4.8723 and 5.304 and 5.021 and 5.76 and 4.3689
organ coefficient, Liver (OVX rats [6]; individual animals): 19.7988 and 22.7088 and 21.1699 and 21.9894 and 21.577 and 21.8338 and 22.6442 and 26.0414 and 24.0486
organ coefficient, Lung (OVX rats [6]; individual animals): 3.321 and 3.475 and 4.3001 and 4.037 and 3.68 and 3.867 and 3.796 and 3.612 and 2.629
organ coefficient, Spleen (OVX rats [6]; individual animals): 1.37 and 1.538 and 1.519 and 1.351 and 1.314 and 1.243 and 1.454 and 1.422 and 1.469
organ coefficient, Thymus (OVX rats [6]; individual animals): 0.5247 and 0.4616 and 0.2402 and 1.041 and 0.7463 and 1.3304 and 0.3322 and 0.6497 and 0.411
organ coefficient, Uterus (OVX rats [6]; individual animals): 0.5222 and 0.6316 and 3.058 and 1.43 and 0.2827 and 0.6792 and 0.9495 and 1.366 and 2.466
body weight (fig. S7d) (OVX rats [6]; week 12, individual animals): 538.3 and 392.8 and 372.2 and 391.4 and 440.6 and 486.3 and 462.8 and 403.8 and 390.8
body weight (fig. S7d) (OVX rats [6]; week 16, individual animals): 559.2 and 407.9 and 470.2 and 373.7 and 449.4 and 404.7 and 487.3 and 429.1 and 417.2
body weight (fig. S7d) (OVX rats [6]; week 20, individual animals): 573.2 and 404.5 and 481.5 and 392.5 and 442.6 and 406.7 and 502.6 and 448.2 and 400
body weight (fig. S7d) (OVX rats [6]; week 24, individual animals): 583.9 and 392.6 and 476.6 and 387.2 and 432.3 and 403.3 and 500.6 and 445.5 and 415.3
